Data from publication PMC11111408, “Concurrent inhibition of oncogenic and wild-type RAS-GTP for cancer therapy” (Nature, 2024).
Where “and” joins values, the source holds several entries; their conditions need not be identical. Identical values can stand only once. One block for each compound: values may come before it.

Experiments:
CYPA = biological target: T1, CYPA (Homo sapiens, UniProt P62937); experiment: CYPA binding affinity (Kd1), SPR; conditions: steady state, (95% CI)
T1 construct: His6-TEV-AviTag-CYPA (full-length); His6-TEV (N); made in house; host or cells: BL21(DE3) Escherichia coli
Experimental: The binding affinity of compounds for CYPA (Kd1) was assessed by SPR on a Biacore 8K instrument as previously described.

Capan-1 cells [1] = experiment: Cellular ERK phosphorylation (pERK); format: cell-based; conditions: Homo sapiens; Capan-1 (KRAS^G12V PDAC); (95% CI)
A375 cells [2] = experiment: Cellular ERK phosphorylation (pERK); format: cell-based, human; conditions: Homo sapiens, A-375; A375 (BRAF^V600E)
Capan-1 cells [3] = experiment: Cell proliferation (CTG); format: cell-based; conditions: Homo sapiens; Capan-1, CTG; (95% CI)
Experimental: (§1) Alternatively, cells were seeded in round-bottom ultra-low attachment 96-well plates, centrifuged at 1,000 rpm for 10 min to pellet the cells, and incubated overnight or up to 72 h to allow for 3D spheroid formation. […] Cell viability was determined by CellTiter-Glo 2.0 reagent (2D CTG) (Promega, G9243) or 3D CellTiter-Glo reagent (3D CTG) (Promega, G9683) according to the manufacturer’s protocols. Luminescence was detected using a SpectraMax M5 Plate Reader (Molecular Devices) of Perkin Elmer Enspire. Luminescence signal was normalized to vehicle-treated wells (normalized signal (%) = (luminescence (treated)/mean luminescence (vehicle)) × 100%). […] Data were plotted as log [inhibitor (M)], and a four-parameter sigmoidal concentration response model was fitted to the data to calculate EC50. […] Pa16C MEK1 mutant cells were evaluated by live-cell counting using Calcein AM and a SpectraMax i3X multi-mode detection platform (Molecular Devices). Growth percentages were calculated by normalizing the treated cell counts to their respective untreated cell counts.

A375 cells [4] = experiment: Cell proliferation (CTG); format: cell-based, human; conditions: Homo sapiens, A-375; A375, CTG; (95% CI)
Experimental: as §1

[5] = Oral bioavailability in mice (LC-MS/MS of blood); format: in vivo; conditions: mouse, whole blood, read-out: Oral Bioavailability m%F
KRAS^G12V [6] = biological target: T2, KRAS^G12V (Homo sapiens, UniProt P01116+P62937, G12V); experiment: RAS binding affinity of compound-bound CYPA (Kd2), SPR; set-up: His6-TEV (N); made in house; host or cells: BL21(DE3) Escherichia coli; conditions: steady state, (95% CI)
KRAS^G12V [7] = biological target: T2, KRAS^G12V; experiment: Biochemical RAS–RAF (BRAF RBD) disruption, TR-FRET; set-up: His6-TEV (N); made in house; host or cells: BL21(DE3) Escherichia coli
Source text: Time-resolved fluorescence resonance energy transfer (TR-FRET) was used as previously described to assess disruption of the interactions between wild-type RAS or the mutant oncogenic RAS proteins and the RAS-binding domain of BRAF, and to assess the induction of interactions between the RAS proteins and CYPA[12].

[8] = test system: KRAS^G12D PDAC cell lines; experiment: Western blot time course of RAS signalling in KRAS^G12D PDAC cell lines; format: cell-based, human; conditions: KRAS^G12D PDAC cells in culture, 2 h to 48 h
Experimental: Total ERK and vinculin were used as loading controls. […] Source Data
Cells were lysed with MSD Tris Lysis Buffer (MSD, R60TX-2) or a buffer of 1% Triton X-100, 20 mM Tris-HCl, 150 mM NaCl, and 1 mM EDTA, both supplemented with protease and phosphatase inhibitors. Lysates were cleared by centrifugation and quantified by BCA assay (Pierce, 23225). […] Image Studio Lite (Version 5.2.5) and Image Lab (Version 6.1.0 build 7) software were used for data analysis.

[9] = test system: Pa16C cells expressing MEK1 mutants; experiment: Proliferation (Calcein AM) of Pa16C cells expressing MEK1 mutants; format: cell-based, human

Kd (CYPA): 0.862 µM
EC50 (Capan-1 cells [1]): 0.632 µM
EC50 (A375 cells [2]): > 10 µM
EC50 (A375 cells [4]): 6.41 µM
bioavailability [5]: 5%
Kd (KRAS^G12V [6]): 6.55 µM
EC50 (KRAS^G12V [7]): 4.4 µM
Compound: CCn1c(-c2cccnc2[C@H](C)OC)c2c3cc(ccc31)-c1cccc(c1)C[C@H](NC(=O)[C@H](C(C)C)N(C)C(=O)[C@H]1CCN(C(C)=O)C1)C(=O)N1CCC[C@H](N1)C(=O)OCC(C)(C)C2 [Compound 1]
EC50 (Capan-1 cells [3]): 0.965 µM

Compound: C#Cc1c(F)ccc2cc(O)cc(-c3ncc4c(N5CC6CCC(C5)N6)nc(OC[C@@]56CCCN5C[C@H](F)C6)nc4c3F)c12 [MRTX1133, reference compound]
pERK suppression over time [8]: rebounded by 48 h
Proliferation of Pa16C cells expressing MEK1 mutant constructs ([9]; MEK1E102-I103del, inhibitor 0.046 nM): 125.8 and 122.1 and 120.54 and 95.05
Proliferation of Pa16C cells expressing MEK1 mutant constructs ([9]; MEK1E102-I103del, inhibitor 0.412 nM): 113.2 and 113.4 and 113.54 and 82.15
Proliferation of Pa16C cells expressing MEK1 mutant constructs ([9]; MEK1E102-I103del, inhibitor 1.235 nM): 110 and 114.8 and 110.17 and 83.99
Proliferation of Pa16C cells expressing MEK1 mutant constructs ([9]; MEK1E102-I103del, inhibitor 3.704 nM): 89.5 and 104.7 and 87.18 and 77.13
Proliferation of Pa16C cells expressing MEK1 mutant constructs ([9]; MEK1K57N, inhibitor 0.046 nM): 113.3 and 92 and 123.41 and 119.36
Proliferation of Pa16C cells expressing MEK1 mutant constructs ([9]; MEK1K57N, inhibitor 0.412 nM): 108.9 and 110.1 and 130.35 and 129.87
Proliferation of Pa16C cells expressing MEK1 mutant constructs ([9]; MEK1K57N, inhibitor 1.235 nM): 119.4 and 130.2 and 127.87 and 133.27
Proliferation of Pa16C cells expressing MEK1 mutant constructs ([9]; MEK1K57N, inhibitor 3.704 nM): 112.2 and 126.4 and 116.3 and 122.06
Proliferation of Pa16C cells expressing MEK1 mutant constructs ([9]; MEK1Q56P, inhibitor 0.046 nM): 116.6 and 110 and 105 and 106.72
Proliferation of Pa16C cells expressing MEK1 mutant constructs ([9]; MEK1Q56P, inhibitor 0.412 nM): 113.89 and 123.5 and 112.2 and 128.92
Proliferation of Pa16C cells expressing MEK1 mutant constructs ([9]; MEK1Q56P, inhibitor 1.235 nM): 123.05 and 112.4 and 128.9 and 131.08
Proliferation of Pa16C cells expressing MEK1 mutant constructs ([9]; MEK1Q56P, inhibitor 3.704 nM): 108.45
Proliferation of Pa16C cells expressing MEK1 mutant constructs ([9]; MEK1S218D/S222D, inhibitor 0.046 nM): 106.52 and 116.35 and 117.97 and 101.1
Proliferation of Pa16C cells expressing MEK1 mutant constructs ([9]; MEK1S218D/S222D, inhibitor 0.412 nM): 107.39 and 112.33 and 125.31 and 99.77
Proliferation of Pa16C cells expressing MEK1 mutant constructs ([9]; MEK1S218D/S222D, inhibitor 1.235 nM): 101.82 and 118.84 and 117.94 and 98.18
Proliferation of Pa16C cells expressing MEK1 mutant constructs ([9]; MEK1S218D/S222D, inhibitor 3.704 nM): 93.55 and 118.16 and 86.21 and 93.79
Proliferation of Pa16C cells expressing MEK1 mutant constructs ([9]; MEK1WT, inhibitor 0.046 nM): 112.3 and 102.3 and 116.1 and 105.31 and 102.33
Proliferation of Pa16C cells expressing MEK1 mutant constructs ([9]; MEK1WT, inhibitor 0.412 nM): 119.4 and 93.5 and 109.72 and 103.89 and 97.19
Proliferation of Pa16C cells expressing MEK1 mutant constructs ([9]; MEK1WT, inhibitor 1.235 nM): 110 and 85.2 and 91.69 and 105.96 and 84.4
Proliferation of Pa16C cells expressing MEK1 mutant constructs ([9]; MEK1WT, inhibitor 3.704 nM): 88.3 and 70.7 and 61.19
